# Source: US9394282B2, “Pyrazole carboxamides as Janus kinase inhibitors” (Merck Sharp & Dohme Corp., priority 2011, dated 2016)
# Key:
# JAK2 = JAK2 (Homo sapiens (Human), UniProt O60674); assay: Jak biochemical HTRF assay, JAK2; conditions: recombinant purified GST-tagged catalytic domain, HTRF format
# Description: (§1) Jak Biochemical HTRF Assay Protocol
# (§2) Subsequent reagent additions employed an Agilent Bravo.
# JAK1 = JAK1 (Homo sapiens (Human), UniProt P23458); assay: Jak biochemical HTRF assay, JAK1; conditions: recombinant purified GST-tagged catalytic domain; HTRF format; [ATP] 31.8 μM
# Sequence of JAK1 (P23458 875-1153): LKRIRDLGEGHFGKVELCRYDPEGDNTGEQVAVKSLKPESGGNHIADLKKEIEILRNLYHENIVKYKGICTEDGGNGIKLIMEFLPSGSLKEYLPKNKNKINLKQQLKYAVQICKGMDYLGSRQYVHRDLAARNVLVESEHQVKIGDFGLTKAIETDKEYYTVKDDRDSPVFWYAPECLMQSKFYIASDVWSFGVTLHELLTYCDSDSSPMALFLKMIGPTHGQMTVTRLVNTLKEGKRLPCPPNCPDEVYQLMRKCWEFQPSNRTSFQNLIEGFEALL
# Description: as §1, §2
# Sequence of JAK2 (O60674 849-1124): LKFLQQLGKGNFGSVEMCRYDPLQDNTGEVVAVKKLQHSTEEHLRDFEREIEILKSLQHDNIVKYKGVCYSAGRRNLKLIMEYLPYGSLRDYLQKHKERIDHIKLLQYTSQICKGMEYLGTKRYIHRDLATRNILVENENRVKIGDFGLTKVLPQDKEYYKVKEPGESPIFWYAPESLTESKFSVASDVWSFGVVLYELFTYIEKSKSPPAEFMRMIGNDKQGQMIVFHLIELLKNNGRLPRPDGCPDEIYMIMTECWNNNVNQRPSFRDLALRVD
Structure (SMILES),IC50 (JAK2; [ATP] […]) [nM],IC50 (JAK1) [nM],IC50 (JAK2; [ATP] 8.5 μM) [nM]
"CC(C)(C)OC(=O)N1CC[C@H](n2cc(C(N)=O)c(Nc3ccccc3)n2)[C@H](C#N)C1 (mixture of isomers) [Example 1-1, tert-butyl(3R,4S and 3S,4R)-4-[4-(aminocarbonyl)-3-anilino-1H-pyrazol-1-yl]-3-cyanopiperidine-1-carboxylate]",1270,108,–
"CC(C)(C)OC(=O)N1CC[C@@H](n2cc(C(N)=O)c(Nc3ccccc3)n2)[C@H](C#N)C1 (mixture of isomers) [Example 1-2, tert-butyl(3S,4S and 3R,4R)-4-[4-(aminocarbonyl)-3-anilino-1H-pyrazol-1-yl]-3-cyanopiperidine-1-carboxylate]",496,24,–
"CC(C)(COC(=O)N1CC[C@@H](C#N)[C@H](n2cc(C(N)=O)c(Nc3ccc(F)cc3)n2)C1)n1cccn1 (mixture of isomers) [Example 5-92, 2-methyl-2-(1H-pyrazol-1-yl)propyl (3S,4Rand 3R, 4S)-3-{4-carbamoyl-3-[(4-fluorophenyl)amino]-1H-pyrazol-1-yl}-4-cyanopiperidine-1-carboxylate]",383,27,–
"C[C@@H]1C[C@H](C#N)[C@@H](n2cc(C(N)=O)c(Nc3ccnc(F)c3)n2)CO1 (mixture of isomers) [Example 10-1, 1-((3R,4S,6R and 3S,4R,6S)-4-Cyano-6-methyltetrahydro-2H-pyran-3-yl)-3-((2-fluoropyridin-4-yl)amino)-1H-pyrazole-4-carboxamide]",25,5,–
"C[C@H]1OCC[C@@H](C#N)[C@@H]1n1cc(C(N)=O)c(Nc2ccnc(F)c2)n1 (mixture of isomers) [Example 10-2, 1-((2S,3R,4S and 2R,3S,4R)-4-cyano-2-methyltetrahydro-2H-pyran-3-yl)-3-((2-fluoropyridin-4-yl)amino)-1H-pyrazole-4-carboxamide]",206,29,–
"CC(C)(C)OC(=O)N1CC[C@H](C#N)C(n2cc(C(N)=O)c(Nc3ccccc3)n2)C1 (mixture of isomers) [Example 1-3, tert-butyl(3R,4S and 3S,4R)-3-[4-(aminocarbonyl)-3-anilino-1H-pyrazol-1-yl]-4-cyanopiperidine-1-carboxylate]",–,5,41
"CC(C)(C)OC(=O)N1CC[C@H](C#N)C(n2cc(C(N)=O)c(Nc3ccc(F)cc3)n2)C1 (mixture of isomers) [Example 2-1, tert-Butyl(3R,4S and 3S,4R)-3-{4-carbamoyl-3-[(4-fluorophenyl)amino]-1H-pyrazol-1-yl}-4-cyanopiperidine-1-carboxylate]",–,6,39
"N#C[C@H]1CCNCC1n1cc(C(N)=O)c(Nc2ccc(F)cc2)n1 (mixture of isomers) [Example 3-1, 1-[(3R,4S and 3S,4R)-4-cyanopiperidin-3-yl]-3-[(4-fluorophenyl)amino]-1H-pyrazole-4-carboxamide]",–,13,125
"N#C[C@@H]1CNCC[C@H]1n1cc(C(N)=O)c(Nc2ccc(F)cc2)n1 (racemic) [Example 3-2, 1-[(3R,4R and 3S,4S)-3-cyanopiperidin-4-yl]-3-[(4-fluorophenyl)amino]-1H-pyrazole-4-carboxamide]",–,7,81
"N#C[C@@H]1CNCCC1n1cc(C(N)=O)c(Nc2ccc(F)cc2)n1 (mixture of isomers) [Example 3-3, 1-[(3R,4R and 3S,4S)-3-cyanopiperidin-4-yl]-3-[(4-fluorophenyl)amino]-1H-pyrazole-4-carboxamide]",–,102,628
"CC(OC(=O)N1CC[C@@H](n2cc(C(N)=O)c(Nc3ccc(F)cc3)n2)[C@H](C#N)C1)C(F)(F)F (mixture of isomers) [Example 5-1, 2,2,2-Trifluoro-1-methylethyl(3R,4R and 3S,4S)-4-{4-carbamoyl-3-[(4-fluorophenyl)amino]-1H-pyrazol-1-yl}-3-cyanopiperidine-1-carboxylate]",–,15,387
